The text below walks through data of article PMC2743263 (Nature chemical biology, 2009).

For assay [1], the system named is autoinducer production by V. cholerae N16961. Briefly: microbe, parasite or virus in culture. The conditions noted are these: Vibrio cholerae, read-out: AI Inhibition IC50, BB170.
For assay [2], the system named is V. cholerae N16961. Nature of the assay: Growth of V. cholerae. The class given is cell-based, Vibrio cholerae.
The test system of assay [3] is E. coli O157:H7. Nature of the assay: Growth of E. coli. Format: cell-based, Escherichia coli.
In assay [4] the test system is autoinducer-2 production in V. cholerae N16961. Briefly: Autoinducer-2 production after prolonged incubation. Format: cell-based, Vibrio cholerae. Particulars: V. cholerae N16961, LB, 26 generations, untreated 540-fold.
Assay [5] deals with autoinducer-2 production in E. coli O157:H7. The assay is described as above. Format: cell-based, Escherichia coli. The conditions noted are these: E. coli O157:H7, LB, 26 generations, 1 μM; untreated 195-fold.
Assay [6] addresses T1, cellular MTAN activity in V. cholerae N16961 (Vibrio cholerae serotype O1, UniProt Q9KPI8).
T1 sequence (Q9KPI8 1-231): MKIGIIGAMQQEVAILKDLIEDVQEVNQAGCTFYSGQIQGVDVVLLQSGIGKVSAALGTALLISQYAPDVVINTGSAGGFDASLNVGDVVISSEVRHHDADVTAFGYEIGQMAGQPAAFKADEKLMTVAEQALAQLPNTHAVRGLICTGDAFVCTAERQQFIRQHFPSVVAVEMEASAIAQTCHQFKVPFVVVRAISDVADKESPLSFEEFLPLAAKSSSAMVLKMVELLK
The class given is cell-based. Particulars: cellular IC50 versus Ki*.

Assay [7] has as its system E. coli MTAN (EcMTAN). Particulars: read-out: dissociation constant; cited from earlier work.
For assay [8], the target named is T2, VcMTAN (Vibrio cholerae serotype O1, UniProt Q9KPI8).
T2 sequence (Q9KPI8 1-231): T1 sequence (Q9KPI8 1-231)
Briefly: VcMTAN substrate kinetics, loss of MTA at 274 nm. The class given is biochemical.

What is called IC50 is the concentration needed to halve the response being measured. `CCCCSC[C@H]1CN(Cc2c[nH]c3c(N)ncnc23)C[C@@H]1O` [BuT-DADMe-ImmA, 5′-butylthio-DADMe-ImmucillinA]: in assay [1], the 50% inhibitory concentration (IC50) turned out to be 1.4 ± 0.3 nM. Also, the “growth of cells in the biofilm assay” value in assay [2] (V. cholerae N16961, 1 μM, static, 25 °C) is recorded as “did not inhibit growth”; in assay [3] (E. coli O157:H7, 1 μM, static, 25 °C) it was “did not inhibit growth”. The growth entry in assay [2] (V. cholerae N16961, 26 generations, 1 or 2.5 μM) is listed as “remained uninhibited”; in assay [3] (E. coli O157:H7, 26 generations, 1 or 2.5 μM), “remained uninhibited”; in assay [3] (E. coli O157:H7 and MTAN knockout strain, AB medium, up to 0.5 μM) it was “no growth defects”. Further, the “effect on cell growth (OD600)” value in assay [2] (overnight culture, concentrations up to 1 μM) is “without affecting growth”. In addition, the “quorum sensing signal (light induction in BB170)” value in assay [4] (1 μM) is 4.2 fold; in assay [4] (2.5 μM), 1.3 fold. For the same compound, the “light induction in BB170” value in assay [5] is 1.4 fold. Besides, in assay [6], the “increase above Ki* required to inhibit VcMTAN activity in the cell” value turned out to be 30 fold.
As for `CCSC[C@H]1CN(Cc2c[nH]c3c(N)ncnc23)C[C@@H]1O` [EtT-DADMe-ImmA, 5′-ethylthio-DADMe-ImmucillinA], in assay [1], the IC50 stood at 11 ± 2 nM.
On to `CSC[C@H]1CN(Cc2c[nH]c3c(N)ncnc23)C[C@@H]1O` [MT-DADMe-ImmA, 5′-methylthio-DADMe-ImmucillinA], for which, in assay [1], the IC50 worked out at 0.94 ± 0.13 nM. Besides, the Ki in assay [7] was 0.002 nM.
A word on the Km: it is the concentration of substrate that gives half-maximal velocity. In general, kcat refers to the number of substrate molecules converted per active site and unit of time at saturation. Take `CSC[C@H]1O[C@@H](n2cnc3c(N)ncnc32)[C@H](O)[C@@H]1O` [MTA, methylthioadenosine]: in assay [8], the Michaelis constant (Km) amounted to 3 µM and the catalytic constant (kcat) was 2 s⁻¹.
